Experimental data: patent US20080281526A1, “Methods For Molecular Toxicology Modeling” (priority 2004, published 2008)
Read-outs that look alike come from different tables or passages of the source.

Test system: rat liver tissue
Experimental: From the nucleic acid hybridization data, a prediction score is calculated for that sample and compared to a reference score from a toxicity reference database according to the following equation. The sample prediction score=ΣwiR^FC^i. “i” is the index number for each gene in a gene expression profile to be evaluated. “wi” is the PLS weight (or PLS score, see Table 2 for an exemplary list of PLS scores for a general kidney toxicity model) for each gene. “R^FC^i” is the RMA fold-change value for the i^th gene, as determined from a normalized RMA matrix of gene expression data from the sample (described above). The PLS weight multiplied by the RMA fold-change value gives a gene regulation score for each gene, and the regulation scores for all the individual genes are added to give a prediction score for the sample.
To establish a toxicity prediction score cut-off value for a toxicity model, the true-positive and false positive rates for each possible score cut-off value are computed, using the scores from all tox and non-tox samples in the training set. This generates an ROC curve, which we use to set the cut-off score at the point on the ROC curve corresponding to ˜5% false positive rate. For example, in a kidney toxicity model of Table 2, a cut-off prediction score is about 0.318.
The conversion algorithm was tested using the liver toxicity model described in U.S. Provisional Application Ser. No. 60/559,949 and herein incorporated by reference.
The first step to using a conversion algorithm is to map microarray fragments. The RGU34 A microarray fragments which comprise the liver toxicity model were mapped to the RAE2.0 microarray. The liver toxicity model is based on 1,100 Affymetrix GeneChip® RGU34 A microarray fragments. […] See Affymetrix's “User's Guide to Product Comparison Spreadsheets” which is herein incorporated by reference.
Once the microarray fragments are mapped, training samples are selected to calculate the conversion model weights. The inventors searched Gene Logic's ToxExpress® reference database, a database which is built on the Affymetrix RGU34A platform, for samples that covered a large amount of interquartile range with respect to signal intensity. […] The samples maximized Ei(Max(Xij)−Min(Xij)), where i indexes genes and j indexes samples.
For this reason, a training set consisting of 100 compounds and vehicles from rat liver tissue was selected.
The 100 training samples were used to train the weights in the conversion algorithm. This step is important because it provides for the quantitative aspect of the conversion. The weight training was performed based on a multiple regression analysis with probe values as the independent variables and RMA expression as the sum of the dependent variables.
Test samples were evaluated using the trained conversion algorithm. The multiple regression model was built on the 11 perfect match probe intensities and generated a predicted RGU34 expression value from a weighted sum of RAE 2.0 probe values. Each test array was scaled to an average probe intensity of 10 (log scale). The conversion algorithm used is given as:
Yi^RGU34=βio+Σβij LOG(Xij^RAE2.0/S)

[1] = RAE2.0 converted RMA data, liver predictive model
[2] = RGU34 RMA data, liver predictive model

Row | SMILES | number of test samples predicted as toxic out of the total number of samples for that compound (rat, in vivo) | number of test samples predicted as toxic out of the total number of samples for that compound [1] | number of test samples predicted as toxic out of the total number of samples for that compound [2]
1 | C[C@]12CC[C@@H]3c4ccc(O)cc4CC[C@H]3[C@@H]1CC[C@@H]2O [Estradiol, estradiol] | 3/3 |  | 
2 | O=C(O)c1cc(-c2ccc(F)cc2F)ccc1O [Diflunisal, diflunisal] | 2/3 |  | 
3 | CCSCC[C@H](N)C(=O)O [Ethionine, ethionine] |  | 3/3 | 3/3
4 | CN(C)CCC(c1ccc(Cl)cc1)c1ccccn1 (stereo not drawn) [Chlorpheniramine, chlorpheniramine] | 0/3 |  | 
5 | [H]/N=C(/N)N[C@H]1[C@H](O)[C@@H](O)[C@H](O[C@@H]2O[C@@H](C)[C@](O)(C=O)[C@H]2O[C@@H]2O[C@@H](CO)[C@H](O)[C@@H](O)[C@@H]2NC)[C@@H](N/C(N)=N\[H])[C@@H]1O [Streptomycin, streptomycin] | 0/3 |  | 
6 | CCOC(=O)C(C)(C)Oc1ccc(Cl)cc1 [Clofibrate] | 0/3 |  | 
7 | CCC1(c2ccccc2)C(=O)NC(=O)NC1=O [Phenobarbital, phenobarbital] |  | 3/3 | 3/3
8 | CN(C)CCC=C1c2ccccc2CCc2ccccc21 [Amitryptilene] |  | 2/2 | 1/2
9 | CN(CCOc1ccc(CC2SC(=O)NC2=O)cc1)c1ccccn1 (stereo not drawn) [Rosiglitazone, rosiglitazone] | 0/3 |  | 
